SMILES strings stand for the structures. ≈ marks a conversion by molar mass, not a printed value. Like-named read-outs stand apart in the source and are kept apart here.

As usually defined, the MIC is the smallest concentration in the dilution series that meets the test's criterion for growth inhibition. The IC50 is the concentration at which inhibition is half-maximal. As a reminder, the melting point is the temperature of the solid-liquid transition.

Data set [1] has as its system Mycobacterium tuberculosis H37Rv. Nature of the data set: Anti-tuberculosis activity test in vitro (Microplate Alamar Blue Assay, MABA). It is filed as cell-based. (The colour change of resazurin is a common sign of viable cells or microbes.)
The subject of data set [2] is mitochondrial protein synthesis. The data set can be described thus: Activity of inhibiting mitochondrial protein synthesis. The data set is classed as biochemical. On the procedure: The experimental steps were carried out according to the literature (Antimicrobial Agents and Chemotherapy, 2006, 50 (6), 2042-2049).
The subject of a further data set is Vero cells. Nature of the data set: Cytotoxicity test (MTT). The data set is classed as cell-based. Conditions: Chlorocebus sabaeus.
Setting [3] is: M. tuberculosis H37Rv, MABA, 7H9 medium, method says MIC90 was calculated, read-out: MIC.
Where [4] appears, read: mitochondrial protein synthesis inhibition, Table 3.
Where [5] appears, read: Vero cells, MTT, 48 hours of incubation, highest concentration 64 μg/mL, read-out: IC50.

Take `CC(=O)NC[C@H]1CN(c2ccc(N3CCOCC3)c(F)c2)C(=O)O1` [Linezolid, reference compound]: in data set [1] (setting [3]), the minimum inhibitory concentration (MIC) is 0.294 µg/mL (≈ 0.871 µM). The IC50 in data set [2] (setting [4]) came out at 8.71 µg/mL.
The molecule `O=C1O[C@@H](Cn2ccnn2)[C@@H]2COc3cc(N4CC5(COC5)C4)c(F)cc3N12` [Compound 27, (3S,3aS)-3-((1H-1,2,3-Triazol-1-yl)methyl)-8-fluoro-7-(2-oxa-6-azaspiro[3.3]heptan-6-y 1)-3a,4-dihydro-1H,3H-benzo[b]oxazolo[3,4-d][1,4]oxazin-1-one] came in with a melting point of 219 to 221 °C. For the same molecule, the IC50 in the data set on Vero cells (setting [5]) is more than 64 µg/mL.
Regarding `O=C1O[C@@H](Cn2ccnn2)[C@@H]2COc3cc(N4[C@@H]5CC[C@H]4CSC5)c(F)cc3N12` [Compound 22, (3S,3aS)-3-((1H-1,2,3-Triazol-1-yl)methyl)-7-((1R,5S)-3-thia-8-azabicyclo[3.2.1]octan-8-yl)-8-fluoro-3a,4-dihydro-1H,3H-benzo[b]oxazolo[3,4-d][1,4]oxazin-1-one], the melting point lay within 225 to 227 °C. Besides, the IC50 with Vero cells (Vero, 48 h) was more than 64 µg/mL.
`O=C(NC[C@@H]1OC(=O)N2c3cc(F)c(N4C5CCC4CSC5)cc3OC[C@@H]12)c1cnccn1` had a melting point of more than 250 °C.
As to `O=C(NC[C@@H]1OC(=O)N2c3cc(F)c(N4[C@@H]5CC[C@H]4CSC5)cc3OC[C@@H]12)C1CC1` [Compound 16, N-(((3S,3aS)-7-((1R,5S)-3-thia-8-azabicyclo[3.2.1]octan-8-yl)-8-fluoro-1-oxo-3a,4-dihydro-1H,3H-benzo[b]oxazolo[3,4-d][1,4]oxazin-3-yl)methyl)cyclopropanecarboxamide], the melting point is 169 to 171 °C. This molecule came in with an MIC in data set [1] (H37RV) of 0.976 µg/mL (≈ 2.25 µM). The IC50 with Vero cells (Vero, 48 h) is more than 64 µg/mL.
The molecule `CC(=O)NC[C@@H]1OC(=O)N2c3cc(F)c(N4CC5(COC5)C4)cc3OC[C@@H]12` [Compound 24, N-(((3S,3aS)-8-Fluoro-1-oxo-7-(2-oxa-6-azaspiro[3.3]heptan-6-yl)-3a,4-dihydro-1H,3H-benzo[b]oxazolo[3,4-d][1,4]oxazin-3-yl)methyl)acetamide] yielded a melting point of 105 to 107 °C. In addition, the IC50 in the data set on Vero cells (setting [5]) is more than 64 µg/mL.
In the case of `COC(=O)NC[C@@H]1OC(=O)N2c3cc(F)c(N4[C@@H]5CC[C@H]4CSC5)cc3OC[C@@H]12` [Compound 18, Methyl (((3S,3aS)-7-((1R,5S)-3-thia-8-azabicyclo[3.2.1]octan-8-yl)-8-fluoro-1-oxo-3a,4-dihydro-1H,3H-benzo[b]oxazolo[3,4-d][1,4]oxazin-3-yl)methyl)carbamate], the melting point was in the range of 149 to 151 °C. Further, in the data set on Vero cells (Vero, 48 h), the IC50 was more than 64 µg/mL.
Consider `CC(=O)NC[C@H]1CN(c2ccc(N3CCSCC3)c(F)c2)C(=O)O1` [Sutezolid, reference compound], for which the MIC in data set [1] (setting [3]) was 0.078 µg/mL (≈ 0.221 µM). The same molecule registered an IC50 in data set [2] (setting [4]) of 7.98 µg/mL.
The molecule `CC(=O)NC[C@@H]1OC(=O)N2c3cc(F)c(N4[C@@H]5CC[C@H]4CSC5)cc3OC[C@@H]12` [Compound 14, N-(((3S,3aS)-7-((1R,5S)-3-thia-8-azabicyclo[3.2.1]octan-8-yl)-8-fluoro-1-oxo-3a,4-dihydro-1H,3H-benzo[b]oxazolo[3,4-d][1,4]oxazin-3-yl)methyl)acetamide] had a melting point of 235 to 236 °C. The same molecule had an MIC in data set [1] (H37RV) of 0.918 µg/mL (≈ 2.25 µM). The IC50 with Vero cells (Vero, 48 h) worked out at 58.5 µg/mL (≈ 144 µM).
Consider `O=C1O[C@@H](CNC2COC2)[C@@H]2COc3cc(N4CCSCC4)c(F)cc3N12` [Compound 36, (3S,3aS)-8-Fluoro-3-((oxetan-3-ylamino)methyl)-7-thiomorpholino-3a,4-dihydro-1H,3H-benzo[b]oxazolo[3,4-d][1,4]oxazin-1-one], for which the melting point was in the range of 162 to 164 °C. In addition, in data set [1] (setting [3]), the MIC is 0.237 µg/mL (≈ 0.599 µM). Further, the IC50 with Vero cells (setting [5]) was more than 64 µg/mL.
As to `CNC[C@@H]1OC(=O)N2c3cc(F)c(N4CCSCC4)cc3OC[C@@H]12` [Compound 2, (3S,3aS)-8-Fluoro-3-((methylamino)methyl)-7-thiomorpholino-3a,4-dihydro-1H,3H-benzo[b]oxazolo[3,4-d][1,4]oxazin-1-one], the melting point lay in the range of 155 to 156 °C. In addition, in the data set with Vero cells (setting [5]), the IC50 was found to be 46.5 µg/mL (≈ 132 µM).
On to `O=C(NC[C@@H]1OC(=O)N2c3cc(F)c(N4CCSCC4)cc3OC[C@@H]12)C(F)F` [Compound 33, 2,2-Difluoro-N-(((3S,3aS)-8-fluoro-1-oxo-7-thiomorpholino-3a,4-dihydro-1H,3H-benzo [b]oxazolo[3,4-d][1,4]oxazin-3-yl)methyl)acetamide], for which the melting point lay in the range of 200 to 202 °C. In addition, the MIC in data set [1] (setting [3]) is 0.1 µg/mL (≈ 0.24 µM). In addition, in the data set with Vero cells (setting [5]), the IC50 stood at 61.6 µg/mL (≈ 148 µM).
With `CC(=O)NC[C@@H]1OC(=O)N2c3ccc(N4CCOCC4)cc3OC[C@@H]12` [Compound VII, reference compound], the MIC in data set [1] (setting [3]) was 1.55 µg/mL (≈ 4.45 µM). The IC50 in data set [2] (setting [4]) was determined as 35.82 µg/mL; in data set [2] (read-out: IC50 value of mitochondrial protein synthesis inhibition) it was 35.8 µM.
`O=C(NC[C@@H]1OC(=O)N2c3cc(F)c(N4CC5(COC5)C4)cc3OC[C@@H]12)C1CCC1` [Compound 26, N-(((3S,3aS)-8-Fluoro-1-oxo-7-(2-oxa-6-azaspiro[3.3]heptan-6-yl)-3a,4-dihydro-1H,3H-benzo[b]oxazolo[3,4-d][1,4]oxazin-3-yl)methyl)cyclobutanecarboxamide]: the melting point lay within 118 to 120 °C. For the same molecule, the IC50 in the data set on Vero cells (setting [5]) is more than 64 µg/mL.
`CC(=O)NC[C@@H]1OC(=O)N2c3cc(F)c(N4CCC(F)(F)CC4)cc3OC[C@@H]12` [Compound 32, N-(((3S,3aS)-7-(4,4-Difluoropiperidin-1-yl)-8-fluoro-1-oxo-3a,4-dihydro-1H,3H-benzo[b]oxazolo[3,4-d][1,4]oxazin-3-yl)methyl)acetamide] had a melting point of 230 to 232 °C. In data set [1] (setting [3]), the MIC was 0.908 µg/mL (≈ 2.27 µM). Moreover, the IC50 in the data set with Vero cells (setting [5]) was more than 64 µg/mL.
`O=C(NC[C@@H]1OC(=O)N2c3cc(F)c(N4[C@@H]5CC[C@H]4CSC5)cc3OC[C@@H]12)c1ccncc1` [Compound 20, N-(((3S,3aS)-7-((1R,5S)-3-thia-8-azabicyclo[3.2.1]octan-8-yl)-8-fluoro-1-oxo-3a,4-dihydro-1H,3H-benzo[b]oxazolo[3,4-d][1,4]oxazin-3-yl)methyl)isonicotinamide]: the melting point lay within 149 to 150 °C. Also, the IC50 in the data set on Vero cells (Vero, 48 h) was more than 64 µg/mL.
Regarding `O=C(NC[C@@H]1OC(=O)N2c3cc(F)c(N4CC5(COC5)C4)cc3OC[C@@H]12)C1CC1` [Compound 25, N-(((3S,3aS)-8-Fluoro-1-oxo-7-(2-oxa-6-azaspiro[3.3]heptan-6-yl)-3a,4-dihydro-1H,3H-benzo[b]oxazolo[3,4-d][1,4]oxazin-3-yl)methyl)cyclopropanecarboxamide], the melting point was in the range of 181 to 183 °C. Further, the IC50 in the data set on Vero cells (setting [5]) is more than 64 µg/mL.
In turn, `O=C(NC[C@@H]1OC(=O)N2c3cc(F)c(N4CC[S+]([O-])CC4)cc3OC[C@@H]12)C(F)F` [Compound 34, 2,2-Difluoro-N-(((3S,3aS)-8-fluoro-7-(1-oxidothiomorpholino)-1-oxo-3a,4-dihydro-1H, 3H-benzo[b]oxazolo[3,4-d][1,4]oxazin-3-yl)methyl)acetamide] registered a melting point of 190 to 192 °C. The MIC in data set [1] (setting [3]) is 0.492 µg/mL (≈ 1.14 µM). Moreover, in the data set with Vero cells (setting [5]), the IC50 is more than 64 µg/mL.
`O=C1O[C@@H](CNc2ccon2)[C@@H]2COc3cc(N4[C@@H]5CC[C@H]4CSC5)c(F)cc3N12` [Compound 19, (3S,3aS)-7-((1R,5S)-3-thia-8-azabicyclo[3.2.1]octan-8-yl)-8-fluoro-3-((isoxazol-3-ylamino)methyl)-3a,4-dihydro-1H,3H-benzo[b]oxazolo[3,4-d][1,4]oxazin-1-one]: the melting point was 180 to 182 °C. In the data set on Vero cells (Vero, 48 h), this molecule returned an IC50 of more than 64 µg/mL.
For `O=C(NC[C@@H]1OC(=O)N2c3cc(F)c(N4[C@@H]5CC[C@H]4CSC5)cc3OC[C@@H]12)C1CCC1` [Compound 17, N-(((3S,3aS)-7-((1R,5S)-3-thia-8-azabicyclo[3.2.1]octan-8-yl)-8-fluoro-1-oxo-3a,4-dihydro-1H,3H-benzo[b]oxazolo[3,4-d][1,4]oxazin-3-yl)methyl)cyclobutanecarboxamide], the melting point lay within 195 to 196 °C. In data set [1] (H37RV), this molecule gave an MIC of 0.974 µg/mL (≈ 2.18 µM). Half-maximal inhibition in the data set on Vero cells (Vero, 48 h) (IC50) required 34.7 µg/mL (≈ 77.5 µM).
`NC[C@@H]1OC(=O)N2c3cc(F)c(N4[C@@H]5CC[C@H]4CSC5)cc3OC[C@@H]12` [Compound 13, (3S,3aS)-3-(Aminomethyl)-7-((1R,5S)-3-thia-8-azabicyclo[3.2.1]octan-8-yl)-8-fluoro-3a,4-dihydro-1H,3H-benzo[b]oxazolo[3,4-d][1,4]oxazin-1-one] gave a melting point of 168 to 169 °C. In data set [1] (H37RV), this molecule came in with an MIC of 0.609 µg/mL (≈ 1.67 µM).
In turn, `CC(C)C(=O)NC[C@@H]1OC(=O)N2c3cc(F)c(N4C5CCC4CSC5)cc3OC[C@@H]12` [Compound 15] showed a melting point of 164 to 165 °C. The molecule further showed an IC50 in the data set with Vero cells (Vero, 48 h) of more than 64 µg/mL.
`CC(=O)NC[C@@H]1OC(=O)N2c3cc(F)c(N4CCS(=O)(=O)CC4)cc3OC[C@@H]12` [Compound 35, N-(((3S,3aS)-7-(1,1-dioxidothiomorpholino)-8-fluoro-1-oxo-3a,4-dihydro-1H,3H-benzo [b]oxazolo[3,4-d][1,4]oxazin-3-yl)methyl)acetamide]: the melting point was in the range of 226 to 228 °C. In data set [1] (setting [3]), the MIC is 0.48 µg/mL (≈ 1.16 µM). Further, the IC50 in the data set on Vero cells (setting [5]) is more than 64 µg/mL.
As for `CS(=O)(=O)NC[C@@H]1OC(=O)N2c3cc(F)c(N4CCSCC4)cc3OC[C@@H]12` [Compound 3, N-(((3S,3aS)-8-Fluoro-1-oxo-7-thiomorpholino-3a,4-dihydro-1H,3H-benzo[b]oxazolo[3,4-d][1,4]oxazin-3-yl)methyl)methanesulfonamide], the melting point lay in the range of 234 to 235 °C. In addition, in the data set on Vero cells (setting [5]), the IC50 is more than 64 µg/mL.
In turn, `COC(=O)NC[C@H]1OC(=O)N2c3cc(F)c(N4CCSCC4)cc3OC[C@H]12` [Compound 30, Methyl (((3R,3aR)-8-fluoro-1-oxo-7-thiomorpholino-3a,4-dihydro-1H,3H-benzo[b]oxazolo[3,4-d][l, 4]oxazin-3-yl)methyl)carbamate] returned a melting point of 158 to 160 °C. Further, the MIC in data set [1] (setting [3]) was 0.208 µg/mL (≈ 0.523 µM). The concentration for half-maximal inhibition (IC50) in the data set on Vero cells (setting [5]) is more than 64 µg/mL.

The values are drawn from patent publication US11332477B2, “Nitrogen containing heterocycle substituted benzoxazine oxazolidinone compound and preparation method and use thereof” (INSTITUTE OF MATERIA MEDICA, CHINESE ACADEMY OF MEDICAL …, priority 2017, dated 2022).
